Results reported in patent US20230348442A1, “GALECTIN-3 INHIBITING 2-HYDROXYCYCLOALKANE-1-CARBAMOYL DERIVATIVES” (Idorsia Pharmaceuticals Ltd, priority 2020, published 2023).

These compounds were tested against human Gal-3 (hGal-3) (Homo sapiens (Human), UniProt P17931) (assay: competitive binding assay: binding of biotinylated hGal-3 to microplate-adsorbed asialofetuin (ASF), spectrophotometric). Details: Activity on hGal-3; mean values of several measurements.
Outline: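 Compounds diluted in DMSO competed with biotinylated hGal-3 or hGal-1 (300-1000 ng/mL) for binding to plate-adsorbed asialofetuin for 3 h at 4° C. Bound galectin was detected with streptavidin-peroxidase (80 ng/mL, 1 h, 4° C) and ABTS substrate; IC50 reported as mean of several measurements.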

Sequence of human Gal-3 (hGal-3) (P17931 whole entry): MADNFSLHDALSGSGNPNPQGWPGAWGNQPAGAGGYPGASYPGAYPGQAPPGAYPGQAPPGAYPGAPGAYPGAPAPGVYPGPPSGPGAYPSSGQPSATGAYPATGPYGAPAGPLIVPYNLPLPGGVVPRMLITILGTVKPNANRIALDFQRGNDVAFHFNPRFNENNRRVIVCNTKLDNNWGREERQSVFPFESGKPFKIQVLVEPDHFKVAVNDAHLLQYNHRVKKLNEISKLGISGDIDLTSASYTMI

IC50 | SMILES
78.8 nM | CO[C@@H]1[C@@H](n2cc(-c3cc(F)c(F)c(F)c3)nn2)[C@@H](O)[C@@H](CO)O[C@H]1C(=O)N(c1cc(Cl)cc(C#N)c1)[C@H]1CC[C@@H]1O [Example 2.1.4, (2R,3R,4S,5R,6R)-N-(3-chloro-5-cyanophenyl)-5-hydroxy-N-((1S,2S)-2-hydroxycyclobutyl)-6-(hydroxymethyl)-3-methoxy-4-(4-(3,4,5-trifluorophenyl)-1H-1,2,3-triazol-1-yl)tetrahydro-2H-pyran-2-carboxamide]
390 nM | CO[C@@H]1[C@@H](n2cc(-c3cc(F)c(F)c(F)c3)nn2)[C@@H](O)[C@@H](CO)O[C@H]1C(=O)N(c1cc(Cl)cc(C#N)c1)[C@@H]1CC[C@H]1O [Example 2.1.4R, (2R,3R,4S,5R,6R)-N-(3-chloro-5-cyanophenyl)-5-hydroxy-N-((1R,2R)-2-hydroxycyclobutyl)-6-(hydroxymethyl)-3-methoxy-4-(4-(3,4,5-trifluorophenyl)-1H-1,2,3-triazol-1-yl)tetrahydro-2H-pyran-2-carboxamide]
44.5 nM | CO[C@@H]1[C@@H](n2cc(-c3cc(F)c(F)c(F)c3)nn2)[C@@H](O)[C@@H](CO)O[C@H]1C(=O)N(c1cc(Br)cc(C#N)c1)[C@H]1CC[C@@H]1O [Example 2.1.5, (2R,3R,4S,5R,6R)-N-(3-bromo-5-cyanophenyl)-5-hydroxy-N-((1S,2S)-2-hydroxycyclobutyl)-6-(hydroxymethyl)-3-methoxy-4-(4-(3,4,5-trifluorophenyl)-1H-1,2,3-triazol-1-yl)tetrahydro-2H-pyran-2-carboxamide]
191 nM | CO[C@@H]1[C@@H](n2cc(-c3cc(F)c(F)c(F)c3)nn2)[C@@H](O)[C@@H](CO)O[C@H]1C(=O)N(c1cc(Br)cc(C#N)c1)[C@@H]1CC[C@H]1O [Example 2.1.5R, (2R,3R,4S,5R,6R)-N-(3-bromo-5-cyanophenyl)-5-hydroxy-N-((1R,2R)-2-hydroxycyclobutyl)-6-(hydroxymethyl)-3-methoxy-4-(4-(3,4,5-trifluorophenyl)-1H-1,2,3-triazol-1-yl)tetrahydro-2H-pyran-2-carboxamide]
196 nM | CO[C@@H]1[C@@H](n2cc(-c3cc(F)c(F)c(F)c3)nn2)[C@@H](O)[C@@H](CO)O[C@H]1C(=O)N(c1cccc(I)c1)[C@H]1CC[C@@H]1O [Example 2.1.6, (2R,3R,4S,5R,6R)-5-hydroxy-N-((1S,2S)-2-hydroxycyclobutyl)-6-(hydroxymethyl)-N-(3-iodophenyl)-3-methoxy-4-(4-(3,4,5-trifluorophenyl)-1H-1,2,3-triazol-1-yl)tetrahydro-2H-pyran-2-carboxamide]
232 nM | CO[C@@H]1[C@@H](n2cc(-c3cc(F)c(F)c(F)c3)nn2)[C@@H](O)[C@@H](CO)O[C@H]1C(=O)N(c1cccc(I)c1)[C@@H]1CC[C@H]1O [Example 2.1.6R, (2R,3R,4S,5R,6R)-5-hydroxy-N-((1R,2R)-2-hydroxycyclobutyl)-6-(hydroxymethyl)-N-(3-iodophenyl)-3-methoxy-4-(4-(3,4,5-trifluorophenyl)-1H-1,2,3-triazol-1-yl)tetrahydro-2H-pyran-2-carboxamide]
108 nM | CO[C@@H]1[C@@H](n2cc(-c3cc(F)c(F)c(F)c3)nn2)[C@@H](O)[C@@H](CO)O[C@H]1C(=O)N(c1cccc(Br)c1)[C@H]1CC[C@@H]1O [Example 2.1.10, (2R,3R,4S,5R,6R)-N-(3-bromophenyl)-5-hydroxy-N-((1S,2S)-2-hydroxycyclobutyl)-6-(hydroxymethyl)-3-methoxy-4-(4-(3,4,5-trifluorophenyl)-1H-1,2,3-triazol-1-yl)tetrahydro-2H-pyran-2-carboxamide]
203 nM | CO[C@@H]1[C@@H](n2cc(-c3cc(F)c(F)c(F)c3)nn2)[C@@H](O)[C@@H](CO)O[C@H]1C(=O)N(c1cccc(Br)c1)[C@@H]1CC[C@H]1O [Example 2.1.10R, (2R,3R,4S,5R,6R)-N-(3-bromophenyl)-5-hydroxy-N-((1R,2R)-2-hydroxycyclobutyl)-6-(hydroxymethyl)-3-methoxy-4-(4-(3,4,5-trifluorophenyl)-1H-1,2,3-triazol-1-yl)tetrahydro-2H-pyran-2-carboxamide]
72.5 nM | CO[C@@H]1[C@@H](n2cc(-c3cc(F)c(F)c(F)c3)nn2)[C@@H](O)[C@@H](CO)O[C@H]1C(=O)N(c1cc(Br)cc(Br)c1)[C@H]1CC[C@@H]1O [Example 2.1.11, (2R,3R,4S,5R,6R)-N-(3,5-dibromophenyl)-5-hydroxy-N-((1S,2S)-2-hydroxycyclobutyl)-6-(hydroxymethyl)-3-methoxy-4-(4-(3,4,5-trifluorophenyl)-1H-1,2,3-triazol-1-yl)tetrahydro-2H-pyran-2-carboxamide]
334 nM | CO[C@@H]1[C@@H](n2cc(-c3cc(F)c(F)c(F)c3)nn2)[C@@H](O)[C@@H](CO)O[C@H]1C(=O)N(c1cc(Br)cc(Br)c1)[C@@H]1CC[C@H]1O [Example 2.1.11R, (2R,3R,4S,5R,6R)-N-(3,5-dibromophenyl)-5-hydroxy-N-((1R,2R)-2-hydroxycyclobutyl)-6-(hydroxymethyl)-3-methoxy-4-(4-(3,4,5-trifluorophenyl)-1H-1,2,3-triazol-1-yl)tetrahydro-2H-pyran-2-carboxamide]
220 nM | CO[C@@H]1[C@@H](n2cc(-c3cc(F)c(F)c(F)c3)nn2)[C@@H](O)[C@@H](CO)O[C@H]1C(=O)N(c1cc(C)cc(Br)c1)[C@@H]1CC[C@H]1O [Example 2.1.12R, (2R,3R,4S,5R,6R)-N-(3-bromo-5-methylphenyl)-5-hydroxy-N-((1R,2R)-2-hydroxycyclobutyl)-6-(hydroxymethyl)-3-methoxy-4-(4-(3,4,5-trifluorophenyl)-1H-1,2,3-triazol-1-yl)tetrahydro-2H-pyran-2-carboxamide]
67.8 nM | COc1cc(-c2cn([C@H]3[C@@H](O)[C@@H](CO)O[C@@H](C(=O)N(c4cc(Cl)cc(Cl)c4)[C@H]4CC[C@@H]4O)[C@@H]3OC)nn2)cc(F)c1F [Example 2.3.2, (2R,3R,4S,5R,6R)-N-(3,5-dichlorophenyl)-4-(4-(3,4-difluoro-5-methoxyphenyl)-1H-1,2,3-triazol-1-yl)-5-hydroxy-N-((1S,2S)-2-hydroxycyclobutyl)-6-(hydroxymethyl)-3-methoxytetrahydro-2H-pyran-2-carboxamide]
190 nM | COc1cc(-c2cn([C@H]3[C@@H](O)[C@@H](CO)O[C@@H](C(=O)N(c4cc(Cl)cc(Cl)c4)[C@@H]4CC[C@H]4O)[C@@H]3OC)nn2)cc(F)c1F [Example 2.3.2R, (2R,3R,4S,5R,6R)-N-(3,5-dichlorophenyl)-4-(4-(3,4-difluoro-5-methoxyphenyl)-1H-1,2,3-triazol-1-yl)-5-hydroxy-N-((1R,2R)-2-hydroxycyclobutyl)-6-(hydroxymethyl)-3-methoxytetrahydro-2H-pyran-2-carboxamide]
113 nM | COc1cc(-c2cn([C@H]3[C@@H](O)[C@@H](CO)O[C@@H](C(=O)N(c4cc(Br)cc(Br)c4)[C@H]4CC[C@@H]4O)[C@@H]3OC)nn2)cc(F)c1F [Example 2.3.11, (2R,3R,4S,5R,6R)-N-(3,5-dibromophenyl)-4-(4-(3,4-difluoro-5-methoxyphenyl)-1H-1,2,3-triazol-1-yl)-5-hydroxy-N-((1S,2S)-2-hydroxycyclobutyl)-6-(hydroxymethyl)-3-methoxytetrahydro-2H-pyran-2-carboxamide]
258 nM | COc1cc(-c2cn([C@H]3[C@@H](O)[C@@H](CO)O[C@@H](C(=O)N(c4cc(Br)cc(Br)c4)[C@@H]4CC[C@H]4O)[C@@H]3OC)nn2)cc(F)c1F [Example 2.3.11R, (2R,3R,4S,5R,6R)-N-(3,5-dibromophenyl)-4-(4-(3,4-difluoro-5-methoxyphenyl)-1H-1,2,3-triazol-1-yl)-5-hydroxy-N-((1R,2R)-2-hydroxycyclobutyl)-6-(hydroxymethyl)-3-methoxytetrahydro-2H-pyran-2-carboxamide]
116 nM | COc1cc(-c2cn([C@H]3[C@@H](O)[C@@H](CO)O[C@@H](C(=O)N(c4cc(C)cc(Br)c4)[C@H]4CC[C@@H]4O)[C@@H]3OC)nn2)cc(F)c1F [Example 2.3.12, (2R,3R,4S,5R,6R)-N-(3-bromo-5-methylphenyl)-4-(4-(3,4-difluoro-5-methoxyphenyl)-1H-1,2,3-triazol-1-yl)-5-hydroxy-N-((1S,2S)-2-hydroxycyclobutyl)-6-(hydroxymethyl)-3-methoxytetrahydro-2H-pyran-2-carboxamide]
311 nM | COc1cc(-c2cn([C@H]3[C@@H](O)[C@@H](CO)O[C@@H](C(=O)N(c4cc(C)cc(Br)c4)[C@@H]4CC[C@H]4O)[C@@H]3OC)nn2)cc(F)c1F [Example 2.3.12R, (2R,3R,4S,5R,6R)-N-(3-bromo-5-methylphenyl)-4-(4-(3,4-difluoro-5-methoxyphenyl)-1H-1,2,3-triazol-1-yl)-5-hydroxy-N-((1R,2R)-2-hydroxycyclobutyl)-6-(hydroxymethyl)-3-methoxytetrahydro-2H-pyran-2-carboxamide]
38 nM | CO[C@@H]1[C@@H](n2cc(-c3cc(F)c(C)c(F)c3)nn2)[C@@H](O)[C@@H](CO)O[C@H]1C(=O)N(c1cc(Cl)cc(Cl)c1)[C@H]1CC[C@@H]1O [Example 2.4.2, (2R,3R,4S,5R,6R)-N-(3,5-dichlorophenyl)-4-(4-(3,5-difluoro-4-methylphenyl)-1H-1,2,3-triazol-1-yl)-5-hydroxy-N-((1S,2S)-2-hydroxycyclobutyl)-6-(hydroxymethyl)-3-methoxytetrahydro-2H-pyran-2-carboxamide]
134 nM | CO[C@@H]1[C@@H](n2cc(-c3cc(F)c(C)c(F)c3)nn2)[C@@H](O)[C@@H](CO)O[C@H]1C(=O)N(c1cc(Cl)cc(Cl)c1)[C@@H]1CC[C@H]1O [Example 2.4.2R, (2R,3R,4S,5R,6R)-N-(3,5-dichlorophenyl)-4-(4-(3,5-difluoro-4-methylphenyl)-1H-1,2,3-triazol-1-yl)-5-hydroxy-N-((1R,2R)-2-hydroxycyclobutyl)-6-(hydroxymethyl)-3-methoxytetrahydro-2H-pyran-2-carboxamide]
